{"source": "patent US9833497B2", "about": "“Human originated EGF domain proteins and use of the same” (CHENGDU SOURCEBIO LIMITED-LIABILITY COMPANY, priority 2013, dated 2017)", "assay_type_in_all_cases": "cell-based", "key": {"Proteus mirabilis": {"test_system": "Proteus mirabilis", "experiment": "MIC against Gram-negative bacteria: Proteus mirabilis", "conditions": "5×10^5 CFU/mL", "procedure,_shortened": "(§1)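 The recombinant human-originated EGF domain proteins were serially diluted two-fold against bacteria at 5×10^5 CFU/mL in LB medium. After shaken incubation at 37° C, the lowest concentration with no bacterial growth was recorded as the MIC.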"}, "E. coli DH5α": {"test_system": "E. coli DH5α", "experiment": "Antibacterial activity: MIC and growth curve against E. coli DH5α in 96-well plate", "conditions": "minimal inhibitory concentration against E. coli DH5α; 96-well plate, 5×10^5 CFU/mL, 37° C., judged after 8 h", "procedure,_shortened": "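MIC taken as lowest protein level with no bacterial growth, tracked by A600 every 30 min during 37 °C, 175 rpm culture. Two-fold protein series 50-12.5 μg/mL final, triplicate wells, against 5×10^5 CFU/mL of LB-washed mid-log cells.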"}, "Citrobacter diversus": {"test_system": "Citrobacter diversus", "experiment": "MIC against Gram-negative bacteria: Citrobacter diversus", "conditions": "5×10^5 CFU/mL", "procedure,_shortened": "as §1"}, "E. coli BL21": {"test_system": "E. coli BL21", "experiment": "MIC against Gram-negative bacteria: E. coli BL21", "conditions": "E. coli BL21, 5×10^5 CFU/mL", "procedure,_shortened": "as §1"}, "Pseudomonas aeruginosa": {"test_system": "Pseudomonas aeruginosa", "experiment": "MIC against Gram-negative bacteria: Pseudomonas aeruginosa", "conditions": "5×10^5 CFU/mL", "procedure,_shortened": "as §1"}, "Proteus vulgaris": {"test_system": "Proteus vulgaris", "experiment": "MIC against Gram-negative bacteria: Proteus vulgaris", "conditions": "5×10^5 CFU/mL", "procedure,_shortened": "as §1"}, "Enterobacter cloacae": {"test_system": "Enterobacter cloacae", "experiment": "MIC against Gram-negative bacteria: Enterobacter cloacae", "conditions": "5×10^5 CFU/mL", "procedure,_shortened": "as §1"}, "Aeromonas hydrophila": {"test_system": "Aeromonas hydrophila", "experiment": "MIC against Gram-negative bacteria: Aeromonas hydrophila", "conditions": "5×10^5 CFU/mL", "procedure,_shortened": "as §1"}, "Serratia marcescens": {"test_system": "Serratia marcescens", "experiment": "MIC against Gram-negative bacteria: Serratia marcescens", "conditions": "5×10^5 CFU/mL", "procedure,_shortened": "as §1"}, "Klebsiella pneumonia": {"test_system": "Klebsiella pneumonia", "experiment": "MIC against Gram-negative bacteria: Klebsiella pneumonia", "conditions": "5×10^5 CFU/mL", "procedure,_shortened": "as §1"}, "Moraxella catarrhalis": {"test_system": "Moraxella catarrhalis", "experiment": "MIC against Gram-negative bacteria: Moraxella catarrhalis", "conditions": "5×10^5 CFU/mL", "procedure,_shortened": "as §1"}, "[1]": {"conditions": "P. mirabilis, 10 h cultivation at 37° C."}, "[2]": {"conditions": "C. diversus, 10 h cultivation at 37° C."}, "[3]": {"conditions": "P. aeruginosa, 10 h cultivation at 37° C."}, "[4]": {"conditions": "P. vulgaris, 10 h cultivation at 37° C."}, "[5]": {"conditions": "E. cloacae, 10 h cultivation at 37° C."}, "[6]": {"conditions": "A. hydrophila, 10 h cultivation at 37° C."}, "[7]": {"conditions": "S. marcescens, 10 h cultivation at 37° C."}, "[8]": {"conditions": "K. pneumonia, 10 h cultivation at 37° C."}, "[9]": {"conditions": "M. catarrhalis, 10 h cultivation at 37° C."}, "[10]": {"conditions": "Proteus mirabilis, 96-well plate, 37° C., 10 h"}, "[11]": {"conditions": "Citrobacter diversus, 96-well plate, 37° C., 10 h"}, "[12]": {"conditions": "Pseudomonas aeruginosa, 96-well plate, 37° C., 10 h"}, "[13]": {"conditions": "Proteus vulgaris, 96-well plate, 37° C., 10 h"}, "[14]": {"conditions": "Enterobacter cloacae, 96-well plate, 37° C., 10 h"}, "[15]": {"conditions": "Aeromonas hydrophila, 96-well plate, 37° C., 10 h"}, "[16]": {"conditions": "Serratia marcescens, 96-well plate, 37° C., 10 h"}, "[17]": {"conditions": "Klebsiella pneumonia, 96-well plate, 37° C., 10 h"}, "[18]": {"conditions": "Moraxella catarrhalis, 96-well plate, 37° C., 10 h"}}}
{"substance": "PRT242 (CEPGCKFGECVGPNKCRCFPGYTGKTC; listed as Homo sapiens)", "values": [{"measurement": "MIC (μg/mL) P. mirabilis", "setting": "Proteus mirabilis; [1]", "result": 12.5, "unit": "µg/mL"}, {"measurement": "MIC", "setting": "E. coli DH5α", "result": 12.5, "unit": "µg/mL"}, {"measurement": "MIC (μg/mL) C. diversus", "setting": "Citrobacter diversus; [2]", "result": 12.5, "unit": "µg/mL"}, {"measurement": "MIC (μg/mL) E. coli BL21", "setting": "E. coli BL21; 10 h cultivation at 37° C.", "result": 12.5, "unit": "µg/mL"}, {"measurement": "MIC (μg/mL) P. aeruginosa", "setting": "Pseudomonas aeruginosa; [3]", "result": 50, "unit": "µg/mL"}, {"measurement": "MIC (μg/mL) P. vulgaris", "setting": "Proteus vulgaris; [4]", "result": 12.5, "unit": "µg/mL"}, {"measurement": "MIC (μg/mL) E. cloacae", "setting": "Enterobacter cloacae; [5]", "result": 12.5, "unit": "µg/mL"}, {"measurement": "MIC (μg/mL) A. hydrophila", "setting": "Aeromonas hydrophila; [6]", "result": 12.5, "unit": "µg/mL"}, {"measurement": "MIC (μg/mL) S. marcescens", "setting": "Serratia marcescens; [7]", "result": 12.5, "unit": "µg/mL"}, {"measurement": "MIC (μg/mL) K. pneumonia", "setting": "Klebsiella pneumonia; [8]", "result": 50, "unit": "µg/mL"}, {"measurement": "MIC (μg/mL) M. catarrhalis", "setting": "Moraxella catarrhalis; [9]", "result": 12.5, "unit": "µg/mL"}]}
{"substance": "PRT88 (HRMDQQCPRGWWGSPTCGPCNCDVHKGFDPNCN; listed as Homo sapiens)", "values": [{"measurement": "MIC (μg/mL) P. mirabilis", "setting": "Proteus mirabilis; [10]", "result": 50, "unit": "µg/mL"}, {"measurement": "MIC", "setting": "E. coli DH5α", "result": 25, "unit": "µg/mL"}, {"measurement": "MIC (μg/mL) C. diversus", "setting": "Citrobacter diversus; [11]", "result": 12.5, "unit": "µg/mL"}, {"measurement": "MIC (μg/mL) E. coli BL21", "setting": "E. coli BL21; 96-well plate, 37° C., 10 h", "result": 12.5, "unit": "µg/mL"}, {"measurement": "MIC (μg/mL) P. aeruginosa", "setting": "Pseudomonas aeruginosa; [12]", "result": 50, "unit": "µg/mL"}, {"measurement": "MIC (μg/mL) P. vulgaris", "setting": "Proteus vulgaris; [13]", "result": 25, "unit": "µg/mL"}, {"measurement": "MIC (μg/mL) E. cloacae", "setting": "Enterobacter cloacae; [14]", "result": 12.5, "unit": "µg/mL"}, {"measurement": "MIC (μg/mL) A. hydrophila", "setting": "Aeromonas hydrophila; [15]", "result": 12.5, "unit": "µg/mL"}, {"measurement": "MIC (μg/mL) S. marcescens", "setting": "Serratia marcescens; [16]", "result": 12.5, "unit": "µg/mL"}, {"measurement": "MIC (μg/mL) K. pneumonia", "setting": "Klebsiella pneumonia; [17]", "result": 100, "unit": "µg/mL"}, {"measurement": "MIC (μg/mL) M. catarrhalis", "setting": "Moraxella catarrhalis; [18]", "result": 12.5, "unit": "µg/mL"}]}
{"substance": "PRT60 (EVDECSRPNRGGCEQRCLNTLGSYKCSCDPGYELAPDKRRCE; listed as Homo sapiens)", "values": [{"measurement": "MIC (μg/mL) P. mirabilis", "setting": "Proteus mirabilis; [10]", "result": 50, "unit": "µg/mL"}, {"measurement": "MIC", "setting": "E. coli DH5α", "result": 12.5, "unit": "µg/mL"}, {"measurement": "MIC (μg/mL) C. diversus", "setting": "Citrobacter diversus; [11]", "result": 12.5, "unit": "µg/mL"}, {"measurement": "MIC (μg/mL) E. coli BL21", "setting": "E. coli BL21; 96-well plate, 37° C., 10 h", "result": 12.5, "unit": "µg/mL"}, {"measurement": "MIC (μg/mL) P. aeruginosa", "setting": "Pseudomonas aeruginosa; [12]", "result": 12.5, "unit": "µg/mL"}, {"measurement": "MIC (μg/mL) P. vulgaris", "setting": "Proteus vulgaris; [13]", "result": 12.5, "unit": "µg/mL"}, {"measurement": "MIC (μg/mL) E. cloacae", "setting": "Enterobacter cloacae; [14]", "result": 12.5, "unit": "µg/mL"}, {"measurement": "MIC (μg/mL) A. hydrophila", "setting": "Aeromonas hydrophila; [15]", "result": 12.5, "unit": "µg/mL"}, {"measurement": "MIC (μg/mL) S. marcescens", "setting": "Serratia marcescens; [16]", "result": 50, "unit": "µg/mL"}, {"measurement": "MIC (μg/mL) K. pneumonia", "setting": "Klebsiella pneumonia; [17]", "result": 12.5, "unit": "µg/mL"}, {"measurement": "MIC (μg/mL) M. catarrhalis", "setting": "Moraxella catarrhalis; [18]", "result": 25, "unit": "µg/mL"}]}
{"substance": "PRT212 (DIDECESGAHQCSEAQTCVNFHGGYRCV; listed as Homo sapiens)", "values": [{"measurement": "MIC (μg/mL) P. mirabilis", "setting": "Proteus mirabilis; [1]", "result": 12.5, "unit": "µg/mL"}, {"measurement": "MIC", "setting": "E. coli DH5α", "result": 12.5, "unit": "µg/mL"}, {"measurement": "MIC (μg/mL) C. diversus", "setting": "Citrobacter diversus; [2]", "result": 12.5, "unit": "µg/mL"}, {"measurement": "MIC (μg/mL) E. coli BL21", "setting": "E. coli BL21; 10 h cultivation at 37° C.", "result": 50, "unit": "µg/mL"}, {"measurement": "MIC (μg/mL) P. aeruginosa", "setting": "Pseudomonas aeruginosa; [3]", "result": 12.5, "unit": "µg/mL"}, {"measurement": "MIC (μg/mL) P. vulgaris", "setting": "Proteus vulgaris; [4]", "result": 12.5, "unit": "µg/mL"}, {"measurement": "MIC (μg/mL) E. cloacae", "setting": "Enterobacter cloacae; [5]", "result": 12.5, "unit": "µg/mL"}, {"measurement": "MIC (μg/mL) A. hydrophila", "setting": "Aeromonas hydrophila; [6]", "result": 25, "unit": "µg/mL"}, {"measurement": "MIC (μg/mL) S. marcescens", "setting": "Serratia marcescens; [7]", "result": 12.5, "unit": "µg/mL"}, {"measurement": "MIC (μg/mL) K. pneumonia", "setting": "Klebsiella pneumonia; [8]", "result": 50, "unit": "µg/mL"}, {"measurement": "MIC (μg/mL) M. catarrhalis", "setting": "Moraxella catarrhalis; [9]", "result": 25, "unit": "µg/mL"}]}
{"substance": "PRT118 (DVDECVGPGGPLCDSLCFNTQGSFHCGCLPGWVLAPNGVSCT; listed as Homo sapiens)", "values": [{"measurement": "MIC (μg/mL) P. mirabilis", "setting": "Proteus mirabilis; [10]", "result": 12.5, "unit": "µg/mL"}, {"measurement": "MIC", "setting": "E. coli DH5α", "result": 12.5, "unit": "µg/mL"}, {"measurement": "MIC (μg/mL) C. diversus", "setting": "Citrobacter diversus; [11]", "result": 12.5, "unit": "µg/mL"}, {"measurement": "MIC (μg/mL) E. coli BL21", "setting": "E. coli BL21; 96-well plate, 37° C., 10 h", "result": 12.5, "unit": "µg/mL"}, {"measurement": "MIC (μg/mL) P. aeruginosa", "setting": "Pseudomonas aeruginosa; [12]", "result": 12.5, "unit": "µg/mL"}, {"measurement": "MIC (μg/mL) P. vulgaris", "setting": "Proteus vulgaris; [13]", "result": 25, "unit": "µg/mL"}, {"measurement": "MIC (μg/mL) E. cloacae", "setting": "Enterobacter cloacae; [14]", "result": 12.5, "unit": "µg/mL"}, {"measurement": "MIC (μg/mL) A. hydrophila", "setting": "Aeromonas hydrophila; [15]", "result": 12.5, "unit": "µg/mL"}, {"measurement": "MIC (μg/mL) S. marcescens", "setting": "Serratia marcescens; [16]", "result": 12.5, "unit": "µg/mL"}, {"measurement": "MIC (μg/mL) K. pneumonia", "setting": "Klebsiella pneumonia; [17]", "result": 12.5, "unit": "µg/mL"}, {"measurement": "MIC (μg/mL) M. catarrhalis", "setting": "Moraxella catarrhalis; [18]", "result": 25, "unit": "µg/mL"}]}
